Laboratory results reported in PMC7614775 (Nature chemical biology, 2022).
One block for each molecule: values may come before it.

What was measured:
[1] = tested on: IFNα-stimulated STAT1 phosphorylation; assay: HTRF phospho-STAT1 assay in human PBMCs; assay type: cell-based; conditions: compound 2 h, IFNα 100 ng/mL 30 min
TYK2_C838 = TYK2_C838 (Homo sapiens, UniProt P29597); assay: Targeted MS-ABPP target engagement (TE50) in human cell lysates; assay type: binding; conditions: read-out: target engagement value (TE50), TYK2_C838, 1 h, in vitro
JAK1_C817 = JAK1_C817 (Homo sapiens, UniProt P23458); assay: as above; assay type: binding
JAK1 (C817) = conditions: human T cells in situ, 50 µM, 1 h; cited from earlier work
TYK2 (C838) = conditions: human T cells in situ, 50 µM, 1 h; cited from earlier work
[2] = molecular target: recombinant TYK2 (WT, C838A) (Homo sapiens, UniProt P29597); assay: Gel-based ABPP in 22Rv1 cells; assay type: binding; conditions: 0.1 μM, 2 h, in situ
[3] = molecular target: recombinant TYK2 (WT, C838A) (Homo sapiens, UniProt P29597, C838A); assay: Gel-based ABPP in 22Rv1 cells; assay type: binding; conditions: 0.1 μM, 2 h, in situ
[4] = tested on: recombinant JAK1 (WT, C810A, C817A); assay: Gel-based ABPP in 22Rv1 cells; assay type: binding, human; conditions: 0.1 μM, 2 h, in situ
GM-CSF-STAT5 signaling [5] = assay: Phospho-STAT western blot in mouse splenocytes; assay type: cell-based
[6] = tested on: IL-6-stimulated STAT3 phosphorylation; assay: Phospho-STAT western blot in human PBMCs; assay type: cell-based; conditions: compound 2 h, IL-6 25 ng/mL 30 min
[7] = tested on: GM-CSF stimulated STAT5 phosphorylation (JAK2-dependent); assay: Phospho-STAT western blot in human PBMCs; assay type: cell-based; conditions: compound 2 h, GM-CSF 15 min
[8] = tested on: IFNα-stimulated STAT1 phosphorylation; assay: Phospho-STAT western blot in human PBMCs; assay type: cell-based; conditions: compound 2 h, IFNα 100 ng/mL 30 min
[9] = tested on: IFNα-stimulated STAT1 phosphorylation; assay: Ex vivo phospho-STAT assay, splenocytes of treated mice; assay type: in vivo, mouse; conditions: splenocytes of mice given 25 mg/kg s.c., 2 × 4 h
JAK1_C816 = JAK1_C816 (Mus musculus, UniProt P52332); assay: In vivo target engagement in spleen by targeted MS-ABPP; conditions: mice, s.c. 25 or 50 mg/kg, two doses over an 8 h period
[10] = tested on: IFNα-dependent STAT1 phosphorylation; assay: Phospho-STAT western blot in mouse splenocytes; assay type: cell-based; conditions: 0.01–0.1 µM
GM-CSF-STAT5 signaling [11] = assay: Ex vivo phospho-STAT assay, splenocytes of treated mice; assay type: in vivo, mouse; conditions: splenocytes of mice given 25 mg/kg s.c., 2 × 4 h
IL-12-STAT4 signaling = assay: Phospho-STAT western blot in mouse splenocytes; assay type: cell-based
[12] = tested on: IL-12-STAT4 signaling (TYK2/JAK2-dependent); assay: Phospho-STAT western blot in human PBMC-derived T-blasts; assay type: cell-based; conditions: compound 2 h, IL-12 12.5 ng/mL 15 min
[13] = tested on: IL-2-stimulated STAT5 phosphorylation; assay: Phospho-STAT western blot in human PBMCs; assay type: cell-based; conditions: compound 2 h, IL-2 20 U/mL 15 min
[14] = tested on: IL-2-dependent STAT5 phosphorylation; assay: Phospho-STAT western blot in mouse splenocytes; assay type: cell-based; conditions: 0.01–0.1 µM
[15] = In vivo pharmacokinetic analysis; conditions: male, CD-1 (ICR), mouse, plasma
[16] = tested on: IL-2-dependent STAT5 phosphorylation; assay: Ex vivo phospho-STAT assay, splenocytes of treated mice; assay type: in vivo, mouse; conditions: splenocytes of mice given 25 mg/kg s.c., 2 × 4 h
IL-6-STAT3 signaling = assay: as above; assay type: in vivo, mouse; conditions: splenocytes of mice given 25 mg/kg s.c., 2 × 4 h
[17] = tested on: IFNγ-stimulated STAT1 phosphorylation; assay: Phospho-STAT western blot in 22Rv1 cells expressing JAK1 variants; assay type: cell-based, human; conditions: WT-JAK1 transfected 22Rv1 cells; 1 μM, 2 h
primary human T cells = assay: T-cell viability (Near IR Live/Dead stain); assay type: cell-based; conditions: 24 h
[18] = tested on: IFNα-stimulated STAT1 phosphorylation; assay: Phospho-STAT western blot in 22Rv1 cells expressing JAK1 variants; assay type: cell-based, human; conditions: cells expressing WT-, C810A-, or C817A-JAK1; 2 µM, 2 h
[19] = tested on: αCD3/αCD28-stimulated primary human T cells (CD25, CD69); assay: T-cell activation analysis by flow cytometry; assay type: cell-based; conditions: αCD3/αCD28 co-stimulation, 24 h
[20] = tested on: IL-6-stimulated STAT3 phosphorylation; assay: Phospho-STAT western blot in mouse splenocytes; assay type: cell-based; conditions: WT mouse splenocytes
[21] = molecular target: JAK1 phosphorylation (pJAK1; Y1034/Y1035) (Homo sapiens, UniProt P23458); assay: JAK1 phosphorylation western blot in 22Rv1 cells expressing JAK1 variants; assay type: cell-based; conditions: 22Rv1 cells transfected with WT or C817A-JAK1; independent of JAK1_C817
[22] = molecular target: JAK1 trans-phosphorylation (Homo sapiens, UniProt P23458); assay: Trans-phosphorylation assay in 22Rv1 cells; assay type: cell-based; conditions: cells expressing active WT-JAK1-FLAG; 2 µM, 2 h
[23] = tested on: IFNα-stimulated STAT1 phosphorylation (TYK2-dependent); assay: Phospho-STAT western blot in 22Rv1 cells expressing TYK2 variants; assay type: cell-based, human; conditions: 2 h

Chain of JAK1_C817 (P23458 whole entry): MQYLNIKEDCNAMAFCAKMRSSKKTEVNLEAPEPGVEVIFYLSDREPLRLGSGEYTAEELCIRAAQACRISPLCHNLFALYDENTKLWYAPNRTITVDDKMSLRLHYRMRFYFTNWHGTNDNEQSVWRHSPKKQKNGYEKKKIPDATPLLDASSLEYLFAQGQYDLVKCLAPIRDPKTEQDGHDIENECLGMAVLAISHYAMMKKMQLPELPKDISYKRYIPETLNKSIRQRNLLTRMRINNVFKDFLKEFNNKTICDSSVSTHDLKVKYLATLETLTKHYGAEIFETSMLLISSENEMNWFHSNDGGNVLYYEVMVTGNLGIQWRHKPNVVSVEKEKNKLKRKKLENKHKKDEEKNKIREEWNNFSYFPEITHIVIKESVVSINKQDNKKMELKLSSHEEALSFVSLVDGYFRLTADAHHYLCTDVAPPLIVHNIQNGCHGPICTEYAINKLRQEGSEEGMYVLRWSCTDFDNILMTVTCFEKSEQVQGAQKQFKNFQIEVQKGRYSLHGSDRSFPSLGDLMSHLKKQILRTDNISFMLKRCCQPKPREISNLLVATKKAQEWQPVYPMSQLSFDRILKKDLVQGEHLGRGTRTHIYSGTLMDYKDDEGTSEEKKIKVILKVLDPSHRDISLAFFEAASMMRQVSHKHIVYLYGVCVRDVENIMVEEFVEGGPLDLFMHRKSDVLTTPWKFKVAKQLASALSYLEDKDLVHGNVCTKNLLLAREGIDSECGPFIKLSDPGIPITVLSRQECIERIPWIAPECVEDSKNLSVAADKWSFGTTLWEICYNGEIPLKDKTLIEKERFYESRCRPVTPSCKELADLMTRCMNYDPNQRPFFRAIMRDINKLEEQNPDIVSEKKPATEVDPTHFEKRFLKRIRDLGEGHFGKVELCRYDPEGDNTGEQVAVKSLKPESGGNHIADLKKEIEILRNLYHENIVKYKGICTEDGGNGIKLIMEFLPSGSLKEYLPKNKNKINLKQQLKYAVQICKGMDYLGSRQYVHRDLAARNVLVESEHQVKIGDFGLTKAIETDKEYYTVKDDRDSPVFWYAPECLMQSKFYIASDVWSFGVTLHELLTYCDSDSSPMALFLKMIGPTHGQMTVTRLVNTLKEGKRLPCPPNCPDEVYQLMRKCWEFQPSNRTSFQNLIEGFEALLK
Chain of JAK1 phosphorylation (pJAK1; Y1034/Y1035) (P23458 whole entry): as above
Chain of JAK1 trans-phosphorylation (P23458 whole entry): as above
Chain of TYK2_C838 (P29597 whole entry): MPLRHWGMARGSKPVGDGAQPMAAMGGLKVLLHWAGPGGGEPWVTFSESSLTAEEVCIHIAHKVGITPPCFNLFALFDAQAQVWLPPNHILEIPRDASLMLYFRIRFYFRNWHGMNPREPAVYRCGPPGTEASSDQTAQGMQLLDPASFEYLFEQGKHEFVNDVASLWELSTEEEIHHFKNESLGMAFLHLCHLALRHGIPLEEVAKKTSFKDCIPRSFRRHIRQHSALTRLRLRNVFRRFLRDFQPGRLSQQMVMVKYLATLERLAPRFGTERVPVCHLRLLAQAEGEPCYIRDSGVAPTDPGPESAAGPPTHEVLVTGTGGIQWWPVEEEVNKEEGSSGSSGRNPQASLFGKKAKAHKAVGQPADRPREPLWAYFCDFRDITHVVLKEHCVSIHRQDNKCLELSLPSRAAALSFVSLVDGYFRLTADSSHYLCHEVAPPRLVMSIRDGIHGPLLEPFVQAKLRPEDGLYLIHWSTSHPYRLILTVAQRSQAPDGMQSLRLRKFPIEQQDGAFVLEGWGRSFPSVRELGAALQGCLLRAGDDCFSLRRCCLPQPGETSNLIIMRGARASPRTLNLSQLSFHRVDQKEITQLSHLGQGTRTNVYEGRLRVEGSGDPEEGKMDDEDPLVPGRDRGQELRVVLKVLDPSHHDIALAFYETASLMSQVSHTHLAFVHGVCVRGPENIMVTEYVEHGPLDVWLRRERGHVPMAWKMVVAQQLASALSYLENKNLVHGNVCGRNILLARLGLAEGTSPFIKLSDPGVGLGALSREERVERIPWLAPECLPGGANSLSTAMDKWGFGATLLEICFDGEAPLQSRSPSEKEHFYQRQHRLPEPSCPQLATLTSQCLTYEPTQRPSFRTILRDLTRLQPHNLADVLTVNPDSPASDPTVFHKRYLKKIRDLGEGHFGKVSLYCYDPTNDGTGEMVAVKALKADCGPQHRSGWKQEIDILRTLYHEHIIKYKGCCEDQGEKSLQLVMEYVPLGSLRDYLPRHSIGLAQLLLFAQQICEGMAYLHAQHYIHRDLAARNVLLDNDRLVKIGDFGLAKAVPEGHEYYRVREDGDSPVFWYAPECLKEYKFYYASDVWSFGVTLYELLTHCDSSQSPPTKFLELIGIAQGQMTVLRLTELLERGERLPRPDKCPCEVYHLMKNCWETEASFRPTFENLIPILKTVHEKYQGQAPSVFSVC
Chain of recombinant TYK2 (WT, C838A) (Homo sapiens, UniProt P29597, C838A) (P29597 whole entry C838A): as the sequence (P29597 whole entry) above, with C838A counted along it
Chain of recombinant TYK2 (WT, C838A) (Homo sapiens, UniProt P29597) (P29597 whole entry C838A): as the sequence (P29597 whole entry) above, with C838A counted along it
Chain of JAK1_C816 (P52332 whole entry): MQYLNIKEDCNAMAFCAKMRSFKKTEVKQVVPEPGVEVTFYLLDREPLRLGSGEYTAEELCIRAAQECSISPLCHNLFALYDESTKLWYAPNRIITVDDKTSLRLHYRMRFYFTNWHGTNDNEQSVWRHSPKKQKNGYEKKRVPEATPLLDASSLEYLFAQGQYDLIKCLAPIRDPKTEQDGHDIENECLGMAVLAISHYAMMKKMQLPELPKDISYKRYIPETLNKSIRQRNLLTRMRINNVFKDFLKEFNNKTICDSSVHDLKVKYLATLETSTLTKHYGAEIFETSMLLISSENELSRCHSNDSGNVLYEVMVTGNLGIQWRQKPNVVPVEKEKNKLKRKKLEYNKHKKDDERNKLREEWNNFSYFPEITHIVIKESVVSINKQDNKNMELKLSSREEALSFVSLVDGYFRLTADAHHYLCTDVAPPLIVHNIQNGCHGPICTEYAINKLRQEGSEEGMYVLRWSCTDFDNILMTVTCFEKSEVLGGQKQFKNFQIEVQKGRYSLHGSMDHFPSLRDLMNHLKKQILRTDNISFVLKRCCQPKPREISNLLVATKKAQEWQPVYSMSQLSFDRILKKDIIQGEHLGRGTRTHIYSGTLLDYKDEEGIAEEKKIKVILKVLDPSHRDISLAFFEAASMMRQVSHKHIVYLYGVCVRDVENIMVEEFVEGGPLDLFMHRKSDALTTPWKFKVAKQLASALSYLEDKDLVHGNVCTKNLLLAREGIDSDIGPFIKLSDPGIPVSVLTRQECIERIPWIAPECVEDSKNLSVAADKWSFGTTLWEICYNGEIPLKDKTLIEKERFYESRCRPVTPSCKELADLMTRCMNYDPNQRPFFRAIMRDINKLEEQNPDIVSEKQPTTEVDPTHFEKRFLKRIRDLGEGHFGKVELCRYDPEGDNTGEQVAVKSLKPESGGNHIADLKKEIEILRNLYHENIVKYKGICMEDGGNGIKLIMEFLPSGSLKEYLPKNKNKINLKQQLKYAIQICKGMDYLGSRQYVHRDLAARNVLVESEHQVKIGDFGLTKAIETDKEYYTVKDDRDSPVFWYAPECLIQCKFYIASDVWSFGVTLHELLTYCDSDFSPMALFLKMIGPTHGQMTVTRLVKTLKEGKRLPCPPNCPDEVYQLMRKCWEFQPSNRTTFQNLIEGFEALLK

Molecule: CC#CC(=O)N1CCCC(c2ccc(Cl)cc2)C1 (single isomer, unassigned; (-)) [(−)-1a]
IC50 ([1]; read-out: IC50, IFNα-stimulated STAT1 phosphorylation (HTRF)): 1400 nM
IC50 (TYK2_C838): 45000 nM
IC50 (JAK1_C817; read-out: target engagement value (TE50), JAK1_C817, 1 h compound treatment of human PBMC or Jurkat cell proteome): 2100 nM

change of TE50 with preincubation time (JAK1_C817; Jurkat T-cell lysate, 10, 30 and 60 minutes): time-dependent decreases
potency compared with the corresponding diastereomers (5c and 5d) (JAK1_C817; TE50 and pSTAT pIC50): substantially more potent
Molecule: CS(=O)(=O)N1CC[C@@H](C#CC(=O)N2CCC[C@H](c3ccc(Cl)c(Cl)c3)C2)C1 [5b]

Molecule: COc1ccc2c(c1)CCCN2C(=O)CCl [KB02]
engagement of JAK1 C817 (JAK1 (C817)): substantially engaged
engagement of TYK2 C838 (TYK2 (C838)): substantially engaged

Molecule: C=CC(=O)N(c1ccccc1)c1ccc(Br)cc1 [KB05]
engagement of JAK1 C817 (JAK1 (C817)): substantially engaged
engagement of TYK2 C838 (TYK2 (C838)): substantially engaged

probe labeling of WT-TYK2 [2]: reacted
probe labeling of C838A-TYK2 [3]: but not a C838A-TYK2 mutant
Molecule: C#CCCS(=O)(=O)N1CCC(C#CC(=O)N2CCCC(c3ccc(Cl)c(Cl)c3)C2)C1 (stereo not drawn) [alkyne probe 6]
probe labeling of WT- and C810A-JAK1 [4]: reacted

Molecule: CC#CC(=O)N1CCCC(c2ccc(Cl)cc2)C1 (stereo not drawn) [compound 1]
IC50, IFNα-stimulated STAT1 phosphorylation (HTRF) [1]: ~two-fold less active
target engagement value (TE50), JAK1_C817 (JAK1_C817; 1 h compound treatment of human PBMC or Jurkat cell proteome): ~two-fold less active

engagement of JAK1_C816 in spleen (JAK1_C816): 75%
AUC(0-t) ([15]; iv, 1 mg/kg): 149 ng·h/mL
Cmax ([15]; iv, 1 mg/kg): 1610 ng/mL
clearance ([15]; iv, 1 mg/kg): 112 mL/min/kg
half-life ([15]; iv, 1 mg/kg): 9.18 min
AUC(0-t) ([15]; sc, 25 mg/kg): 2930 ng·h/mL
Cmax ([15]; sc, 25 mg/kg): 3380 ng/mL
bioavailability ([15]; sc, 25 mg/kg): 78.3%
half-life ([15]; sc, 25 mg/kg): 21.6 min
Molecule: CS(=O)(=O)N1CCC(C#CC(=O)N2CCCC(c3ccc(Cl)c(Cl)c3)C2)C1 (stereo not drawn) [compound 5]
effect on GM-CSF-STAT5 signaling (GM-CSF-STAT5 signaling [5]): sparing
effect on IL-6-pSTAT3 [6]: potently inhibited
effect on GM-CSF stimulated STAT5 phosphorylation [7]: sparing
effect on IFNα-pSTAT1 [8]: potently inhibited
IFNα-stimulated STAT1 phosphorylation vs vehicle-treated mice [9]: substantial impairments
effect on IFNα-dependent STAT1 phosphorylation [10]: inhibited
GM-CSF-STAT5 signaling vs vehicle-treated mice (GM-CSF-STAT5 signaling [11]): unaffected
effect on IL-12-STAT4 signaling (IL-12-STAT4 signaling): sparing
effect on IL-12-STAT4 signaling [12]: sparing
effect on IL-2-pSTAT5 [13]: potently inhibited
effect on IL-2-dependent STAT5 phosphorylation [14]: inhibited
IL-2-dependent STAT5 phosphorylation vs vehicle-treated mice [16]: not substantially altered
IL-6-STAT3 signaling vs vehicle-treated mice (IL-6-STAT3 signaling): unaffected

Molecule: C[C@@H]1CCN(C(=O)CC#N)C[C@@H]1N(C)c1ncnc2[nH]ccc12 [tofacitinib, reference compound]
effect on IL-6-pSTAT3 [6]: blocked
effect on IFNα-pSTAT1 [8]: blocked
effect on IFNγ-stimulated STAT1 phosphorylation [17]: completely inhibited
T-cell viability (primary human T cells): Neither compound affected
effect on IL-2-pSTAT5 [13]: blocked
effect on IFNα-stimulated pSTAT1 [18]: equivalently blocked
early-stage activation marker CD69 [19]: Neither compound affected
effect on IL-6-stimulated STAT3 phosphorylation [20]: suppressed

Molecule: CC[C@@H]1CN(C(=O)NCC(F)(F)F)C[C@@H]1c1cnc2cnc3[nH]ccc3n12 [upadacitinib, reference compound]
effect on IFNγ-stimulated STAT1 phosphorylation [17]: completely inhibited
effect on IL-6-stimulated STAT3 phosphorylation [20]: suppressed

Molecule: deucravacitinib [BMS-986165, reference compound]
effect on GM-CSF stimulated STAT5 phosphorylation [7]: inactive
effect on JAK1 phosphorylation [21]: suppressed
effect on IFNγ-stimulated STAT1 phosphorylation [17]: Neither VVD-118313 nor the TYK2 inhibitor BMS-986165 altered
effect on IL-12-STAT4 signaling [12]: inhibited
effect on trans-phosphorylation of inactive JAK1-HA variants [22]: blocked JAK1 trans-phosphorylation in a C817-independent manner
effect on IFNα-induced STAT1 phosphorylation ([23]; C838A-TYK2 expressing 22Rv1 cells): blocked
effect on IFNα-induced STAT1 phosphorylation ([23]; WT-TYK2 expressing 22Rv1 cells): blocked
effect on IL-6-stimulated STAT3 phosphorylation [20]: suppressed
